Measured values from publication PMC10263468, “Biosynthesis of cannabigerol and cannabigerolic acid: the gateways to further cannabinoid production” (Synthetic Biology, 2023).

What was measured:
Experiment in all cases: endpoint assay, LC-MS quantification of product
AtaPT [1] = molecular target: T1, AtaPT (Aspergillus terreus, UniProt A0A1B0UHJ4, E91D); format: biochemical; details: read-out: Apparent Km; co-substrate GPP 1 mM; 1 μM enzyme; 25 mM Tris pH 8, 150 mM NaCl, 5% glycerol; 25°C; approximate constant
T1 construct: gene PT; N-terminal His6 tag (pETM11), codon-optimised synthetic gene, E. coli ArcticExpress (DE3), purified
T1 sequence (A0A1B0UHJ4 whole entry E91D): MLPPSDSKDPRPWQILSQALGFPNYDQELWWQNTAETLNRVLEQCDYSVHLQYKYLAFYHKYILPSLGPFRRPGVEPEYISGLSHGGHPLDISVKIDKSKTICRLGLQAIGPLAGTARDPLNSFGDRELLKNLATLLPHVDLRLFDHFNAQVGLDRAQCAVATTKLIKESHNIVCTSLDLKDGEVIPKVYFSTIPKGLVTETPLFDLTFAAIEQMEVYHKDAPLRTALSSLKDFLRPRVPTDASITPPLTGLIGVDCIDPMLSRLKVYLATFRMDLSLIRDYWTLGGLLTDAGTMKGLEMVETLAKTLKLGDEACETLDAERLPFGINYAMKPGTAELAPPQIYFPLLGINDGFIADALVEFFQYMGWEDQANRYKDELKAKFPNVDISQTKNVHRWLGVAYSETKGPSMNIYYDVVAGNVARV
From the text: (§1) endpoint assay, LC-MS quantification of product on AtaPT

AtaPT [2] = molecular target: T2, AtaPT (Aspergillus terreus, UniProt A0A1B0UHJ4, E91A); format: biochemical; details: read-out: Apparent Km; co-substrate GPP 1 mM; 1 μM enzyme; 25 mM Tris pH 8, 150 mM NaCl, 5% glycerol; 25°C; approximate constant
T2 construct: gene PT; N-terminal His6 tag (pETM11), codon-optimised synthetic gene, E. coli ArcticExpress (DE3), purified
T2 sequence (A0A1B0UHJ4 whole entry E91A): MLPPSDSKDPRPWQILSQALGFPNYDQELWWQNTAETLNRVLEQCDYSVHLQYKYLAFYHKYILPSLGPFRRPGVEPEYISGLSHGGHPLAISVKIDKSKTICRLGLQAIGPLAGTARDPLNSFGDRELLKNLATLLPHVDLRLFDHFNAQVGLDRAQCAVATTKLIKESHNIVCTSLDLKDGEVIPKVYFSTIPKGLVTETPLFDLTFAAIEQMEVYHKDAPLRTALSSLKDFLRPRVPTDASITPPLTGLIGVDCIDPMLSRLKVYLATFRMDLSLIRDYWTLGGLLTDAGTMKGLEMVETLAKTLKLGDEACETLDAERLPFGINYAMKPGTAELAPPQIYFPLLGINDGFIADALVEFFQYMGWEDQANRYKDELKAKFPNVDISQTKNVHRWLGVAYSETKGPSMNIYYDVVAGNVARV
From the text: as §1

AtaPT [3] = molecular target: T3, AtaPT (Aspergillus terreus, UniProt A0A1B0UHJ4, E91Q); format: biochemical; details: read-out: Apparent Km; co-substrate GPP 1 mM; 1 μM enzyme; 25 mM Tris pH 8, 150 mM NaCl, 5% glycerol; 25°C; approximate constant
T3 construct: gene PT; N-terminal His6 tag (pETM11), codon-optimised synthetic gene, E. coli ArcticExpress (DE3), purified
T3 sequence (A0A1B0UHJ4 whole entry E91Q): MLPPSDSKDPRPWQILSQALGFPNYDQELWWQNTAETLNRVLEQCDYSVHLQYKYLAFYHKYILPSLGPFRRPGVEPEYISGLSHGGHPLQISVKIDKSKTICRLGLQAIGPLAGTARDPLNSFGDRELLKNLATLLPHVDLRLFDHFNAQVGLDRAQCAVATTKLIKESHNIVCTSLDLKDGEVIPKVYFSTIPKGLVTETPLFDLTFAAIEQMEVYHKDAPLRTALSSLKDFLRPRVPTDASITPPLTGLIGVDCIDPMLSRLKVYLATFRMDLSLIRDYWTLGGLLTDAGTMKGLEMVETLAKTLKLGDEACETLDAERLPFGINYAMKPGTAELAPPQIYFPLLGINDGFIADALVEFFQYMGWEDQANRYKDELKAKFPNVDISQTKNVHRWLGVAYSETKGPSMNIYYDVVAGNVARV
From the text: as §1

[4] = system: CCCCCc1cc(O)cc(O)c1C(=O)O; format: biochemical, Aspergillus terreus; details: co-substrate GPP 1 mM, 10 μM enzyme, 25 mM Tris pH 8, 150 mM NaCl, 5% glycerol, 25°C, approximate constant (high enzyme concentration)
From the text: as §1

| Compound | Km (AtaPT [1]) [µM] | Km (AtaPT [2]) [µM] | Km (AtaPT [3]) [µM] | Km [4] [µM] | kcat [4] [s⁻¹] |
| --- | --- | --- | --- | --- | --- |
| CCCCCc1cc(O)cc(O)c1C(=O)O [OA, olivetolic acid] | 266 ± 44 | 332 ± 96 | 94 ± 32 | – | – |
| AtaPT (Aspergillus terreus) | – | – | – | 1083 ± 126 | 0.000147 ± 5e-06 |
